From BindingDB's records for patent US20250059188 (Anaxis Pharma, 2025)

How the values were obtained:
Test in all cases: In Vitro Assay
[1] = target: T1, Mixed lineage kinase domain-like protein (Homo sapiens, UniProt Q8NB16)
T1 sequence (Q8NB16 whole entry): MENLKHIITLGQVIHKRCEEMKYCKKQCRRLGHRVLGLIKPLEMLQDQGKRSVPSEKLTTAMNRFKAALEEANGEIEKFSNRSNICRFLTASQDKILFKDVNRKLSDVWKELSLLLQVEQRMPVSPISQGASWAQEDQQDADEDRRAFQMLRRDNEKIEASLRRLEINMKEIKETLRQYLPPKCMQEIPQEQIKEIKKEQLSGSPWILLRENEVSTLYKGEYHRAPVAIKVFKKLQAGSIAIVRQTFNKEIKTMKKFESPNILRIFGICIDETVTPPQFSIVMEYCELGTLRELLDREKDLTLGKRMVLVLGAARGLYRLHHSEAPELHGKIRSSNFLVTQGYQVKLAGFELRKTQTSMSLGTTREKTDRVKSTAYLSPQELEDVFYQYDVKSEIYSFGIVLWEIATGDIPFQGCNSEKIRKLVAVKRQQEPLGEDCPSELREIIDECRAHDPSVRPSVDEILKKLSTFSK
Protocol: (§1) For most assays, kinase-tagged T7 phage strains were grown in parallel in 24-well blocks in an E. coli host derived from the BL21 strain. E. coli were grown to log-phase and infected with T7 phage from a frozen stock (multiplicity of infection=0.4) and incubated with shaking at 32° C. until lysis (90-150 minutes). The lysates were centrifuged (6,000×g) and filtered (0.2 μm) to remove cell debris. The remaining kinases were produced in HEK-293 cells and subsequently tagged with DNA for qPCR detection. […] The liganded beads were blocked with excess biotin and washed with blocking buffer (SeaBlock (Pierce), 1% BSA, 0.05% Tween 20, 1 mM DTT) to remove unbound ligand and to reduce non-specific phage binding. […] All reactions were performed in polypropylene 384-well plates in a final volume of 20 μL. […] The kinase concentration in the eluates was measured by qPCR.

[2] = target: T2, Receptor-interacting serine/threonine-protein kinase 1 (Homo sapiens, UniProt Q13546)
T2 sequence (Q13546 whole entry): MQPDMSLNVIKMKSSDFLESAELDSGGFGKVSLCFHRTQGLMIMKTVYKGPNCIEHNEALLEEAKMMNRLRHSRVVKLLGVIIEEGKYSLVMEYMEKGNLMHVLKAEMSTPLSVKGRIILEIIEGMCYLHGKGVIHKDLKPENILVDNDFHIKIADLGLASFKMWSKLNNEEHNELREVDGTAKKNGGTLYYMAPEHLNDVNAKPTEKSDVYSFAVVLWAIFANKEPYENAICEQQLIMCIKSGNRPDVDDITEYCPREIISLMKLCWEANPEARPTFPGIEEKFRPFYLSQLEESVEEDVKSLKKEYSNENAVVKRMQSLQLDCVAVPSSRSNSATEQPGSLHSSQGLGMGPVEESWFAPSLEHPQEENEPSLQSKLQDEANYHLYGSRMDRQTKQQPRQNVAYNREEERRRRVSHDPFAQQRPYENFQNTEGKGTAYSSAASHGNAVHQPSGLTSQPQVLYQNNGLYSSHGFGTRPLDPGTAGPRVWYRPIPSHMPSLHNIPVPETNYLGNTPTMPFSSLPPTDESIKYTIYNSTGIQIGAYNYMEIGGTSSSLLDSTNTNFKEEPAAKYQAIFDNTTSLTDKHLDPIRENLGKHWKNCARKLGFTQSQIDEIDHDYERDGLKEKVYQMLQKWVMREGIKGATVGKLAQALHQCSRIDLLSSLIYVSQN
Protocol: as §1

[3] = target: Receptor-interacting serine/threonine-protein kinase 3 (Homo sapiens, UniProt Q9Y572)
Protocol: as §1

Sequence of Receptor-interacting serine/threonine-protein kinase 3 (Q9Y572 whole entry): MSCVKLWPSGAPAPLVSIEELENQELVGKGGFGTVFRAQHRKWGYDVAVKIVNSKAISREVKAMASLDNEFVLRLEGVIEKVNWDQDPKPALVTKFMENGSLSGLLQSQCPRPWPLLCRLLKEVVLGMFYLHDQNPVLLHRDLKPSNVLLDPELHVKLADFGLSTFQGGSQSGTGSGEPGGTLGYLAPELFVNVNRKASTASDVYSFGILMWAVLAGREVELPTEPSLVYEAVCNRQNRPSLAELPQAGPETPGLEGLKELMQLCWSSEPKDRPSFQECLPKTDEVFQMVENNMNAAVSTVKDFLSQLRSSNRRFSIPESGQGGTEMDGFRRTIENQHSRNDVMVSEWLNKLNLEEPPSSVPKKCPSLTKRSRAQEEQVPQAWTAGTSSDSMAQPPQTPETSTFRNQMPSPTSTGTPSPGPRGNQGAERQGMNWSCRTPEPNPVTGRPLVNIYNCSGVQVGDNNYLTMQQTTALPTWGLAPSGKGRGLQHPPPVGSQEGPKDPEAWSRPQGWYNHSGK

| Compound | Kd [1] [µM] | Kd [2] [µM] | Kd [3] [µM] |
| --- | --- | --- | --- |
| C[C@H](Oc1cc(C2C=NN3C=CN=C(N)C23)ccc1NS(=O)(=O)C(F)F)c1ccc(F)cc1 (some centres undefined) [US20250059188, Compound 22] | < 0.001 | > 10 | > 10 |
| COc1ccc([C@H](C)Oc2cc(-c3nn(C)c4c(-c5cnn(C6CCOCC6)c5)cnc(N)c34)ccc2NS(=O)(=O)C(F)F)cc1 [US20250059188, Compound 129] | < 0.001 | > 10 | > 10 |

Results, then the compound that gave them:

| Kd [1] [µM] | Kd [2] [µM] | Kd [3] [µM] | Compound |
| --- | --- | --- | --- |
| < 0.001 | > 10 | > 10 | Cn1nc(-c2ccc(NS(=O)(=O)C(F)F)c(OCc3ccc(F)cc3)c2)c2c(N)ncc(-c3ccncc3)c21 [US20250059188, Compound 14] |
|  | > 10 | > 10 | C[C@H](Oc1cc(-c2nn(C)c3c(-c4cnn(C5CCN(C)C(C(F)F)C5)c4)cnc(N)c23)ccc1NS(=O)(=O)C(F)F)c1ccc(F)cc1 (some centres undefined) [US20250059188, Compound 158] |
| < 0.001 | > 10 | > 10 | C[C@H](Oc1cc(-c2nn(C)c3c(-c4cnn(C5CCC(N(C)C)C5)c4)cnc(N)c23)ccc1NS(=O)(=O)C(F)F)c1ccc(F)cc1 (some centres undefined) [US20250059188, Compound 168] |
